What follows are compounds tested against T1, human full-length recombinant PKC βII (Homo sapiens, UniProt P05771) (assay: Determination of PKC βII inhibition (Caliper mobility shift kinase assay)). Conditions: final compound concentration 1.14 μM (±0.15 μM); 60 min incubation at 32° C.
T1 construct: Active human full-length recombinant PKC βII; purchased Invitrogen GmbH, Darmstadt, Germany
Assay type: biochemical
Method: Determination of PKC βII Inhibition
PKC βII inhibition was determined according to the following protocol:
Active human full-length recombinant PKC βII and the peptide substrate, Fluorescein-RFARKGSLRQKNV, were purchased from Invitrogen GmbH, Darmstadt, Germany. Adenosine-5′-triphosphate (ATP), bovine serum albumine (BSA), dimethylsulphoxide (DMSO), 4-(2-hydroxyethyl)piperazine-1-ethanesulfonic acid (Hepes), Triton X-100, 1,2-Dioleoyl-sn-glycerol (DAG), L-α-Phosphatidyl-L-serine (PS), calcium chloride (CaCl2), and Pluronic F-68 were purchased from Sigma-Aldrich, Munich, Germany. Magnesium chloride, 1 M sodium hydroxide solution, 1M hydrochloric acid solution and EDTA were obtained from Merck Biosciences, Darmstadt, Germany.
Test compounds were diluted to three times the test concentration in buffer 1 (30 mM Hepes-NaOH, pH 7.4, 0.01% Pluronic F-68 and 3% (v/v) DMSO). The […] enzyme was diluted to a concentration of 30 ng/ml in buffer 2 (30 mM Hepes-NaOH, pH 7.4, 15 mM MgCl2, 150 μM CaCl2, 150 μg/ml PS, 60 μg/ml DAG, and 0.045% (w/v) Triton X-100). The peptide substrate and ATP were diluted to concentrations of 3 μM and 120 μM, respectively, in buffer 2. Two μl of the compound solution were mixed with 2 μl of the diluted enzyme in a 384-well small volume microtiter plate (Greiner, Bio-One, Frickenhausen, Germany), and the kinase reaction was initiated by addition of 2 μl of the solution containing peptide substrate and ATP. After 60 min incubation at 32° C., the reaction was stopped by addition of 20 μl of a solution containing 130 mM Hepes-NaOH, pH 7.4, 0.0195% (v/v) Brij-35, 6.5 mM EDTA, 0.13% chip coating reagent 3 (Caliper Lifescience Inc, Hopkinton, Mass.) and 6.5% (v/v) DMSO. Phosphorylation of the substrate peptide was then detected on a Caliper 3000 instrument essentially as described by Pommereau et al (J. Biomol. Screening 2004, 9(5), 409-416). Separation conditions were as follows: Pressure −0.8 psi, upstream voltage −3000 V, downstream voltage −800 V. Positive controls (buffer 1 instead of compound) and negative controls (buffer 1 instead of compound and buffer 2 instead of kinase solution) were run in parallel on each plate. Fractional turnover (R) was determined as the height of the peak of the phosphorylated peptide product divided by the sum of the unphosphorylated substrate and phosphorylated product peak heights. Percent-inhibition values for the test compounds were determined using the formula % Inhibition=100*(1−(Rcompound−Rnegative control)/(Rpositive control−Rnegative control).
In the following table % inhibition values observed with example compounds at a final concentration of 1.14 μM (±0.15 μM) are listed: […]

T1 sequence (P05771 1-673 isoform P05771-2): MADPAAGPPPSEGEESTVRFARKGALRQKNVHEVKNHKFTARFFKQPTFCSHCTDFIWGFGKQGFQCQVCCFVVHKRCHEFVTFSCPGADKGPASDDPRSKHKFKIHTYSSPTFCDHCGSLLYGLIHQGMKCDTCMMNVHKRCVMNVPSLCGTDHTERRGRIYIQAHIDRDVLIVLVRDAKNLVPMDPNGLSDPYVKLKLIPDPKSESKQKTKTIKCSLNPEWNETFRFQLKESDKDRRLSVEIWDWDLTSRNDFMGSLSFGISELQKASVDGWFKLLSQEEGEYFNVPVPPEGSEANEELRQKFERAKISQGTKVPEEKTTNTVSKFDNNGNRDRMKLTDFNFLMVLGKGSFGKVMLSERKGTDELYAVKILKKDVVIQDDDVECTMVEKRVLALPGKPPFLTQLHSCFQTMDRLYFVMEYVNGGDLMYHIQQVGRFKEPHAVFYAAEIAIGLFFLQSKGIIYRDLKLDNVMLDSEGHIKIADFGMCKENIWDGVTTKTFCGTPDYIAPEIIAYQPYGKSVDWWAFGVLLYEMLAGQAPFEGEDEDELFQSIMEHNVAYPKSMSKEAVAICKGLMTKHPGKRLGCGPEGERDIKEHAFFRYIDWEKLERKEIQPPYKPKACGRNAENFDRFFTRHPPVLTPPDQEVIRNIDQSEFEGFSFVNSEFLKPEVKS

| SMILES | inhibition at 1.14 µM | % Inhibition |
| --- | --- | --- |
| CC[C@H]1CNC(C)(C)CN1Cc1cc(-c2ccc(O)cc2)nc2[nH]nc(C)c12 [Example 145, 4-[4-((S)-2-Ethyl-5,5-dimethyl-piperazin-1-ylmethyl)-3-methyl-1H-pyrazolo[3,4-b]pyridin-6-yl]-phenol] | 95% | – |
| CC[C@@]1(C)CN(Cc2cc(-c3ccc(O)cc3F)nc3[nH]nc(C)c23)C(C)(C)CN1 [Example 136, 4-[4-((S)-5-Ethyl-2,2,5-trimethyl-piperazin-1-ylmethyl)-3-methyl-1H-pyrazolo[3,4-b]pyridin-6-yl]-3-fluoro-phenol] | 104% | – |
| Cc1n[nH]c2nc(-c3ccc(O)cc3F)cc(CN3CCNC[C@H]3c3ccc(F)cc3)c12 [Example 106, 3-Fluoro-4-{4-[(R)-2-(4-fluoro-phenyl)-piperazin-1-ylmethyl]-3-methyl-1H-pyrazolo[3,4-b]pyridin-6-yl}-phenol] | 104% | – |
| CCC1(CC)CN(Cc2cc(-c3ccc(O)c(F)c3)nc3[nH]nc(C)c23)C(C)(C)CN1 [Example 58, 4-[4-(5,5-Diethyl-2,2-dimethyl-piperazin-1-ylmethyl)-3-methyl-1H-pyrazolo[3,4-b]pyridin-6-yl]-2-fluoro-phenol] | 91% | – |
| Cc1n[nH]c2nc(-c3ccc(O)cc3)cc(CN3CC(C)(C)NC[C@@H]3C)c12 [Example 139, 4-[3-Methyl-4-((S)-2,5,5-trimethyl-piperazin-1-ylmethyl)-1H-pyrazolo[3,4-b]pyridin-6-yl]-phenol] | 95% | – |
| Cc1n[nH]c2nc(-c3ccc(O)cc3F)cc(CN3CC(C)NCC34CCCC4)c12 (stereo not shown) [Example 16, 3-Fluoro-4-[3-methyl-4-(8-methyl-6,9-diaza-spiro[4.5]dec-6-ylmethyl)-1H-pyrazolo[3,4-b]pyridin-6-yl]-phenol] | 99% | – |
| CC(=O)N1CC(C)(C)N(Cc2cc(-c3ccc(O)cc3F)nc3[nH]nc(C)c23)CC1(C)C [Example 78, 1-{4-[6-(2-Fluoro-4-hydroxy-phenyl)-3-methyl-1H-pyrazolo[3,4-b]pyridin-4-ylmethyl]-2,2,5,5-tetramethyl-piperazin-1-yl}-ethanone] | 97% | – |
| CCC1(NCc2cc(-c3ccc(O)cc3)nc3[nH]nc(C)c23)CCCNC1 (stereo not shown) [Example 46, 4-{4-[(3-Ethyl-piperidin-3-ylamino)-methyl]-3-methyl-1H-pyrazolo[3,4-b]pyridin-6-yl} phenol] | 90% | – |
| Cc1n[nH]c2nc(-c3ccc(O)cc3F)cc(CN3CCNCC3c3cccc(F)c3)c12 (stereo not shown) [Example 6, 3-Fluoro-4-{4-[2-(3-fluoro-phenyl)-piperazin-1-ylmethyl]-3-methyl-1H-pyrazolo[3,4-b]pyridin-6-yl}-phenol] | 91% | – |
| CCC1(C)CN(Cc2cc(-c3ccc(O)cc3)nc3[nH]nc(C)c23)C(C)(C)CN1 (stereo not shown) [Example 57, 4-[4-(5-Ethyl-2,2,5-trimethyl-piperazin-1-ylmethyl)-3-methyl-1H-pyrazolo[3,4-b]pyridin-6-yl]-phenol] | 93% | – |
| Cc1n[nH]c2nc(-c3ccc(O)cc3F)cc(CN3CCC[C@@](C)(N)C3)c12 [Example 148, 4-[4-((R)-3-Amino-3-methyl-piperidin-1-ylmethyl)-3-methyl-1H-pyrazolo[3,4-b]pyridin-6-yl]-3-fluoro-phenol] | 99% | – |
| Cc1n[nH]c2nc(-c3ccc(O)cc3F)cc(CN3CCNCC3c3ccc(C(F)(F)F)cc3)c12 (stereo not shown) [Example 3] | 68% | – |
| COCCN1CC(C)(C)N(Cc2cc(-c3ccc(O)cc3)nc3[nH]nc(C)c23)CC1C (stereo not shown) [Example 63, 4-{4-[4-(2-Methoxy-ethyl)-2,2,5-trimethyl-piperazin-1-ylmethyl]-3-methyl-1H-pyrazolo[3,4-b]pyridin-6-yl}-phenol] | 97% | – |
| Cc1n[nH]c2nc(-c3ccc(O)cc3F)cc(CN3CC4(CCCC4)NC[C@H]3C)c12 [Example 138, 3-Fluoro-4-[3-methyl-4-((R)-8-methyl-6,9-diaza-spiro[4.5]dec-9-ylmethyl)-1H-pyrazolo[3,4-b]pyridin-6-yl]-phenol] | 98% | – |
| CCC1(C)CN(Cc2cc(-c3ccc(O)cc3F)nc3[nH]nc(C)c23)C(C)(C)CN1 (stereo not shown) [Example 21, 4-[4-(5-Ethyl-2,2,5-trimethyl-piperazin-1-ylmethyl)-3-methyl-1H-pyrazolo[3,4-b]pyridin-6-yl]-3-fluoro-phenol] | 93% | – |
| Cc1n[nH]c2nc(-c3ccc(O)cc3F)cc(CN3C[C@H](C(C)C)NCC3(C)C)c12 [Example 129, 3-Fluoro-4-[4-((S)-5-isopropyl-2,2-dimethyl-piperazin-1-ylmethyl)-3-methyl-1H-pyrazolo[3,4-b]pyridin-6-yl]-phenol] | 97% | – |
| Cc1n[nH]c2nc(-c3ccc(O)cc3F)cc(CN3CCNCC34CCC4)c12 [Example 17, 4-[4-(5,8-Diaza-spiro[3.5]non-5-ylmethyl)-3-methyl-1H-pyrazolo[3,4-b]pyridin-6-yl]-3-fluoro-phenol] | 98% | – |
| Cc1n[nH]c2nc(-c3ccc(O)cc3F)cc(CN3CCNCC34CCCC4)c12 [Example 7, 4-[4-(6,9-Diaza-spiro[4.5]dec-6-ylmethyl)-3-methyl-1H-pyrazolo[3,4-b]pyridin-6-yl]-3-fluoro-phenol] | 103% | – |
| CC[C@@]1(C)CNC(C)(C)CN1Cc1cc(-c2ccc(O)cc2)nc2[nH]nc(C)c12 [Example 142, 4-[4-((S)-2-Ethyl-2,5,5-trimethyl-piperazin-1-ylmethyl)-3-methyl-1H-pyrazolo[3,4-b]pyridin-6-yl]-phenol] | 100% | – |
| Cc1n[nH]c2nc(-c3ccc(O)cc3F)cc(CN3C[C@@H](C)NC[C@@H]3C)c12 [Example 27, 4-[4-((2S,5R)-2,5-Dimethyl-piperazin-1-ylmethyl)-3-methyl-1H-pyrazolo[3,4-b]pyridin-6-yl]-3-fluoro-phenol] | 83% | – |
| COC(=O)CN1CC(C)(C)N(Cc2cc(-c3ccc(O)cc3F)nc3[nH]nc(C)c23)CC1(C)C [Example 74, {4-[6-(2-Fluoro-4-hydroxy-phenyl)-3-methyl-1H-pyrazolo[3,4-b]pyridin-4-ylmethyl]-2,2,5,5-tetramethyl-piperazin-1-yl}-acetic acid methyl ester] | 95% | – |
| Cc1n[nH]c2nc(-c3ccc(O)cc3)cc(CN3CCNCC3c3ccc(C(F)(F)F)cc3)c12 (stereo not shown) [Example 44, 4-{3-Methyl-4-[2-(4-trifluoromethyl-phenyl)-piperazin-1-ylmethyl]-1H-pyrazolo[3,4-b]pyridin-6-yl}-phenol] | 38% | – |
| Cc1n[nH]c2nc(-c3ccc(O)cc3F)cc(CN3CCNC[C@@H]3c3ccccc3)c12 [Example 109, 3-Fluoro-4-[3-methyl-4-((S)-2-phenyl-piperazin-1-ylmethyl)-1H-pyrazolo[3,4-b]pyridin-6-yl]-phenol] | 91% | – |
| CC[C@@]1(C)CNC(C)(C)CN1Cc1cc(-c2ccc(O)cc2F)nc2[nH]nc(C)c12 [Example 122, 4-[4-((S)-2-Ethyl-2,5,5-trimethyl-piperazin-1-ylmethyl)-3-methyl-1H-pyrazolo[3,4-b]pyridin-6-yl]-3-fluoro-phenol] | 100% | – |
| Cc1n[nH]c2nc(-c3ccc(O)cc3)cc(CN3C[C@@H](C)NC[C@@H]3c3ccccc3)c12 [Example 111, 4-[3-Methyl-4-((2S,5R)-5-methyl-2-phenyl-piperazin-1-ylmethyl)-1H-pyrazolo[3,4-b]pyridin-6-yl]-phenol] | – | 88% |
| COCCCN1CC(C)(C)N(Cc2cc(-c3ccc(O)cc3)nc3[nH]nc(C)c23)CC1C (stereo not shown) [Example 64, 4-{4-[4-(3-Methoxy-propyl)-2,2,5-trimethyl-piperazin-1-ylmethyl]-3-methyl-1H-pyrazolo[3,4-b]pyridin-6-yl}-phenol] | 94% | – |
| Cc1n[nH]c2nc(-c3ccc(O)cc3)cc(CN3CC(C)(C)NCC3C)c12 (stereo not shown) [Example 52, 4-[3-Methyl-4-(2,5,5-trimethyl-piperazin-1-ylmethyl)-1H-pyrazolo[3,4-b]pyridin-6-yl]-phenol] | 91% | – |
| Cc1n[nH]c2nc(-c3ccc(O)cc3F)cc(CN3CCNC[C@@H]3c3ccc(C(F)(F)F)cc3)c12 [Example 103, 3-Fluoro-4-{3-methyl-4-[(S)-2-(4-trifluoromethyl-phenyl)-piperazin-1-ylmethyl]-1H-pyrazolo[3,4-b]pyridin-6-yl}-phenol] | 53% | – |

— patent US9133181B2, “Substituted 6-(4-hydroxy-phenyl)-1H-pyrazolo[3,4-b]pyridine derivatives as kinase inhibitors” (SANOFI, priority 2012, dated 2015)
